Results as given in US20050089524A1, “Compositions and compounds for use as molecular adjuvant for a nicotine vaccine” (priority 2002, published 2005).
Values belong to the molecule of their own block, whether it stands above or below them. Square brackets hold non-standard residues; d marks the D form. Peptide text beside a SMILES is read from it.

Columns and labels:
[1] = Anti-nicotine antibodies in immune serum of rats (ELISA); format: in vivo, Wistar rats
Protocol: ii. Animal Models. Five groups of male Wistar rats (ca 275 g) were immunized every other week with: 1) PBS 2) Nic-[…]aR (Nic-SEQ ID NO:1), 3) Nic-[…]aR (Nic-SEQ ID NO:1) in Freund's adjuvant, 4) Nic-[…]aR (Nic-SEQ ID NO:2), and 5) Nic-[…]aR (Nic-SEQ ID NO:2) in Freund's adjuvant. Primary immunizations were accomplished by subcutaneous (s.c.) and intrapertioneal (i.p.) injection of 100 μg of the peptides as indicated above in the presence or absences of complete Freund's adjuvant. Boosting was performed in identical fashion at two-week internals with 100 μg of the peptides in the presence of absence of Freund's adjuvant. Sera were obtained by retro-orbital sinus puncture one week after the third injection.

[2] = system: immunizing peptide and free peptides; assay: ELISA of sera from mice immunized with HBsAg CTL epitope-C5a agonist constructs; format: in vivo; conditions: 1:50 dilution of the serum
Protocol: Immunization protocols. Groups of six to eight BALB/c mice were given bilateral s.c. injections in the inguinal area with (100 μl each side) of a PBS solution containing 50-100 μg of the peptides. Booster injections were given s.c. in the inguinal region at 21-day intervals. Sera for Ab analysis were obtained by retro-orbital bleeds of mice under CO2 narcosis.
Antibodies to the HBsAg CTL epitope or the C5a agonist are not produced by immunization with the HBsAg CTL epitope-C5a agonist constructs. […] Thus, it was of interest to determine whether sera from mice immunized with the control peptides and epitope-C5a agonist constructs contained antibody directed against any of the peptides. […] (SEQ ID NO: 12), […]

C5aR = target: T1, C5aR (Homo sapiens, UniProt P21730); assay: Binding affinity for C5aRs on human PMNs (125I-C5a competition)
T1 construct: endogenous in cells; host or cells: intact human PMNs (polymorphonuclear leukocytes)
T1 sequence (P21730 1-350): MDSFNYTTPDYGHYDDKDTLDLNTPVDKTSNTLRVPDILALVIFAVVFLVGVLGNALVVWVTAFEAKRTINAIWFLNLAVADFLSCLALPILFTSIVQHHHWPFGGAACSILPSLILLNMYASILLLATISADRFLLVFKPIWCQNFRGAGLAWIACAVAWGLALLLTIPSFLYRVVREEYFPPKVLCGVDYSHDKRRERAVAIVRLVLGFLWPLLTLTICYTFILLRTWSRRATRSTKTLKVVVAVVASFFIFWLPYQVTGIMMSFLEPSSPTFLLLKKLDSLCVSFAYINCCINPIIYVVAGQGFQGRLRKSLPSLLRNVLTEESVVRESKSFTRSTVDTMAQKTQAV
Protocol: Pharmacologic assays. C5a-like agonistic activity was assessed by the ability of the peptides to induce smooth muscle contraction of human umbilical artery and […] from human PMNs according to previously published methods (Sanderson et al., 1994, supra; Sanderson et al., J. Med. Chem. 38, 3669, 1995; Finch et al., J. Med. Chem. 40, 877, 1997). Full concentration-response curves were generated for individual peptides and natural C5a in each assay and the EC50 values (the concentration of peptide producing 50% of the maximal response to each peptide) were calculated. pD2 transforms [−log EC50 (M)] were calculated for each concentration-response curve and reported as the mean±SE. Peptide binding affinity to the C5aR was evaluated on intact human PMNs by a competition assay using ^125I-C5a according to previously described methods (Sanderson et al., 1995, supra; Finch et al., 1997, supra). Statistical analysis of the values obtained from pharmacologic assays was performed using one-way analysis of variance (ANOVA).

human PMNs = assay: MPO release from human PMNs; format: cell-based
Protocol: (§1) Pharmacologic assays. […] Statistical analysis of the values obtained from pharmacologic assays was performed using one-way analysis of variance (ANOVA).

[3] = system: 51Cr-labeled P815S (HBsAg transfectant) target cells; assay: HBsAg-specific CTL response of immunized mice (51Cr-release assay); format: in vivo, BALB/c mice; conditions: for % Specific Lysis: s.c. in PBS, boost day 21, spleen cells day 42
human umbilical artery = assay: Smooth muscle contraction of human umbilical artery; format: cell-based
Protocol: as §1

[4] = target: C5a receptor (C5aR) expressed on the surface of human PMNs (human) (UniProt P21730); assay: competition with 125I-C5a on intact human PMNs; concentration giving 50% inhibition of 125I-C5a binding
[5] = target: C5a receptor (C5aR) expressed on the surface of human PMNs (human) (UniProt P21730); assay: cell-based or functional assay
[6] = target: C5a receptor (C5aR) expressed on the surface of human PMNs (human) (UniProt P21730); assay: competition with 125I-C5a on intact human PMNs
[7] = target: T2, C5a receptor (C5aR) expressed on the surface of human PMNs (human, UniProt P21730 1-350); assay: cell-based or functional assay
T2 sequence (looked up): T1 sequence (P21730 1-350)

[8] = target: T2, C5a receptor (C5aR) expressed on the …; assay: cell-based or functional assay; remark: listed apart in the source
[9] = target: T2, C5a receptor (C5aR) expressed on the …; assay: competition with 125I-C5a on intact human PMNs; concentration giving 50% inhibition of 125I-C5a binding
[10] = target: T2, C5a receptor (C5aR) expressed on the …; assay: competition with 125I-C5a on intact human PMNs
Description: Pharmacologic activities.

[11] = 100 μg s.c. and i.p., sera one week after the third injection

Molecule: Nic-YKQGGFLGLYSFKPMPLaR [B-cell-C5a-Nic]
dipper entries on nicotine sessions, first cycle (male Sprague-Dawley rats; 1000 mg (500 mg s.c. and 500 mg i.p.) in saline, boosted weekly for 2 weeks, nicotine 0.4 mg/kg s.c.): significantly less dipper entries than non-vaccinated rats on nicotine Sessions 2 and 3
index of learning-elevation score for the first light (male Sprague-Dawley rats; first cycle): does not differ between vaccinated and non-vaccinated rats
dipper entries on saline sessions (male Sprague-Dawley rats; nicotine not present): does not differentially affect behavior in this preparation when nicotine is not present
Modified Minus Unmodified, BSA [1, 11]: 0 ng/mL
Modified Minus Unmodified, BSA-Nic [1, 11]: 33,943 ng/ml
Raw Data, plate coated with BSA [1, 11]: 1,298 ng/ml
Raw Data, plate coated with BSA-Nic [1, 11]: 35,241 ng/ml
antibody reactivity on other nicotine-modified peptides ([1]; in the presence of Freund's adjuvant, FIG. 7): 172,647 ng/ml

Molecule: CC[C@H](C)[C@H](N)C(=O)N1CCC[C@H]1C(=O)N[C@@H](CCC(N)=O)C(=O)N[C@@H](CO)C(=O)N[C@@H](CC(C)C)C(=O)N[C@@H](CC(=O)O)C(=O)N[C@@H](CO)C(=O)N[C@@H](Cc1c[nH]c2ccccc12)C(=O)N[C@@H](Cc1c[nH]c2ccccc12)C(=O)N[C@H](C(=O)N[C@@H](CO)C(=O)N[C@@H](CC(C)C)C(=O)N[C@@H](CCCNC(=N)N)C(=O)N[C@@H](CCCNC(=N)N)C(=O)N[C@@H](Cc1ccc(O)cc1)C(=O)N[C@@H](CO)C(=O)N[C@@H](Cc1ccccc1)C(=O)N[C@@H](CCCCN)C(=O)N1CCC[C@H]1C(=O)N[C@@H](CCSC)C(=O)N1CCC[C@H]1C(=O)N[C@@H](CC(C)C)C(=O)N[C@H](C)C(=O)N[C@@H](CCCNC(=N)N)C(=O)O)[C@@H](C)O (H-IPQSLDSWWTSLRRYSFKPMPL[dA]R-OH; N-terminus assumed)
serum binding to the free C5a agonist and CTL epitope peptides (ELISA) [2]: did not bind the free peptides
EC50 (C5aR): 416 nM
IC50 (C5aR): 417 nM
EC50 (human PMNs; concentration resulting in 50% maximum release of myeloperoxidase): 540 nM
pD2 ± SE (human PMNs; −log EC50 (M), mean ± SE, n 3): 6.27 ± 0.29
% Specific Lysis ([3]; Effector:Target Ratio 6.25:1): 9%
% Specific Lysis ([3]; Effector:Target Ratio 12.5:1): 14%
% Specific Lysis ([3]; Effector:Target Ratio 25:1): 23%
% Specific Lysis ([3]; Effector:Target Ratio 50:1): 32%
antigen-specific CTL response ([3]; three s.c. injections of 50 μg at 21 day intervals, no added adjuvant): generated an antigen-specific CTL response
EC50 (human umbilical artery; concentration resulting in 50% maximum contraction): 161 nM
pD2 ± SE (human umbilical artery; −log EC50 (M), mean ± SE, n 3): 6.79 ± 0.31

EC50 [4]: 2340 nM
smooth muscle contraction of human umbilical artery, EC50 [5]: 0.01 µM
smooth muscle contraction of human umbilical artery, pD2 (-log EC50 (M)) [5]: 6.99
pD2 (-log EC50 (M)) [6]: 5.63
Molecule: C5a C-terminal decapeptide agonist analog YSFKPMPLaR

MPO release from human PMNs, EC50 [7]: 3 nM
MPO release from human PMNs, pD2 (-log EC50 (M)) [7]: 8.5
smooth muscle contraction of human umbilical artery, EC50 [8]: 2 nM
smooth muscle contraction of human umbilical artery, pD2 (-log EC50 (M)) [8]: 8.77
EC50 [9]: 0.4 nM
pD2 (-log EC50 (M)) [10]: 9.43
B1: natural C5a (ligand, UniProt P01031 678-751, looked up)
chain: TLQKKIEEIAAKYKHSVVKKCCYDGACVNNDETCEQRAARISLGPRCIKAFTECCVVASQLRANISHKDMQLGR
